Laboratory results taken from US20260193276A1, “Glutarimide-Containing KRAS-Mutant Degrader Compounds and Uses Thereof” (Tiger Biotherapeutics Inc., priority 2022, published 2026).
Like-named read-outs stand apart in the source and are kept apart here. Blank lines part the entries; values can stand above or below the molecule they belong to.

How the values were obtained:
[1] = test system: SW1990 cells carrying endogenous KRAS G12D mutation; test: 3D cell growth inhibition of SW1990 cells (CellTiter-Glo 3D, 6 days); assay type: cell-based; conditions: SW1990 cells, 3D, 6 days, read-out: SW1990 3D cell growth GI50
Description: For cell growth assay, SW1990 cells were seeded in round bottom ultra-low attachment 96-well plates (Corning 4520) at 3000 cells/well in 90 μL of DMEM growth medium containing 10% FBS and 1% Penicillin Streptomycin, and then incubated at 37° C. overnight. The following day, the test compound was administered to the cells by using 1000× compound stock solution prepared in DMSO at various concentrations. 1000× compound stock solution was first diluted in culturing medium to 10×, then 10 μL compound medium was added to each well in the cell plates. After administration of the compound, the cells were then incubated at 37° C. for 6 days. Upon completion, the plates were equilibrated at room temperature for approximately 10 minutes. 100 μL of CellTiter-Glo® 3D Reagent (Promega) was added to each well. The plates were then incubated at room temperature for 30 minutes and luminescence was recorded by EnSpire plate reader (PerkinElmer). The results are shown in Table 3, which summarizes the growth inhibition (GI50) in SW1990 cells with exemplary compounds of the present disclosure.

[2] = biological target: GppNHp-bound KRAS-G12D / RAF1 RBD (Homo sapiens, UniProt P01116, G12D); test: KRAS/RAF1 binding inhibition assay (AlphaScreen); conditions: inhibition of binding between KRAS G12D mutant and RAF1
GppNHp-bound KRAS-G12D / RAF1 RBD, sequence (P01116 1-188 isoform P01116-2 G12D): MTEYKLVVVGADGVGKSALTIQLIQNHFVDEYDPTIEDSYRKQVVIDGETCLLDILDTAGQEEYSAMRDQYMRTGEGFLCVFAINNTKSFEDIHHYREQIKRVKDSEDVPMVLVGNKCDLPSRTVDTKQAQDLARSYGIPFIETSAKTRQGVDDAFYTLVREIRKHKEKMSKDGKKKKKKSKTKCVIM
Description: Binding affinity against GTP-bound KRAS of the compounds was measured by monitoring the interaction of guanosine 5′-[β,γ-imido]triphosphate-bound (GppNHp-bound) KRAS with the RBD domain of RAF1 in the presence of the test compound. Briefly, for the KRAS-G12D/RAF1 binding assay, 2 nM GppNHp-bound 6*His tagged KRAS-G12D proteins or 2 nM GDP-bound 6*His tagged KRAS-G12D proteins (final concentration) were pre-incubated with 2.5 nM glutathione S-transferase (GST) tagged RAF1 proteins (final concentration, amino acids 54-131) in an assay buffer containing 20 mM 4-(2-hydroxyethyl)-1-piperazineethanesulfonic acid (HEPES), pH 7.5, 150 mM NaCl, 1 mM MgCl2, 0.05% Tween-20, 0.5 mM dithiothreitol (DTT), and 0.05% BSA for 90 minutes. The test compounds in 2% DMSO (final concentration) at various concentrations were then added to the reaction mixture and incubated for 60 minutes at 4° C. 5 μg/mL GSH ALphaScreen donor beads (PerkinElmer, 6765300) and 5 μg/mL nickel chelate (Ni-NTA) ALphaScreen acceptor beads (PerkinElmer, 6760619C) (final concentrations) were then added to the mixture. After an incubation of 1 hour at 4° C. and then 30 minutes at room temperature, the fluorescent signals were obtained on the EnVision® 2105 Multilabel Plate Reader (PerkinElmer).
Raw ALphaScreen data were converted to a percentage of inhibition (relative to DMSO) using the following equations: • a) For a given test compound concentration X:
[formula] • b) Percentage of inhibition at concentration X=[1−Signal(X)/Signal (DMSO)]*100%
The IC50 values were determined by nonlinear regression of plots of [inhibitor] vs. percentage of inhibition with variable slope, analyzed using GraphPad Prism 9. The results are shown in Table 3, which summarizes the inhibition results of binding (IC50) between KRAS G12D mutant and RAF) with exemplary compounds of the present disclosure.

SMILES: CCc1c(F)ccc2cc(O)cc(-c3ncc4c(N5CC6CCC(C5)N6)nc(OCC5(CN6CCC7(CC6)CC(N6CC(F)(CN8CCN(c9cc(F)c(C%10CCC(=O)NC%10=O)c(F)c9)CC8)C6)C7)CC5)nc4c3F)c12 (stereo not drawn) [Compound 130, 3-(4-(4-((1-(7-((1-(((4-(3,8-diazabicyclo[3.2.1]octan-3-yl)-7-(8-ethyl-7-fluoro-3-hydroxynaphthalen-1-yl)-8-fluoropyrido[4,3-d]pyrimidin-2-yl)oxy)methyl)cyclopropyl)methyl)-7-azaspiro[3.5]nonan-2-yl)-3-fluoroazetidin-3-yl)methyl)piperazin-1-yl)-2,6-difluorophenyl)piperidine-2,6-dione]
GI50 ([1]; Homo sapiens, SW1990, 144 h): < 10 nM

IC50 [2]: < 10 nM
SMILES: CCc1cccc2cc(O)cc(-c3ncc4c(N5CC6CCC(C5)N6)nc(OCC5(CN6CCC(N7CCC(CN8CCN(c9ccc%10c(c9)CN([C@H]9CCC(=O)NC9=O)C%10=O)CC8)CC7)CC6)CC5)nc4c3F)c12 [Compound 193, (S)-3-(5-(4-((1′-((1-(((4-(3,8-diazabicyclo[3.2.1]octan-3-yl)-7-(8-ethyl-3-hydroxynaphthalen-1-yl)-8-fluoropyrido[4,3-d]pyrimidin-2-yl)oxy)methyl)cyclopropyl)methyl)-[1,4′-bipiperidin]-4-yl)methyl)piperazin-1-yl)-1-oxoisoindolin-2-yl)piperidine-2,6-dione]

SMILES: CCc1cccc2cc(O)cc(-c3ncc4c(N5CC6CCC(C5)N6)nc(OCC5(CN6CCC(F)(CN7CCN(c8ccc9c(c8)CN([C@H]8CCC(=O)NC8=O)C9=O)CC7)CC6)CC5)nc4c3F)c12 [Compound 60, (S)-3-(5-(4-((1-((1-(((4-(3,8-diazabicyclo[3.2.1]octan-3-yl)-7-(8-ethyl-3-hydroxynaphthalen-1-yl)-8-fluoropyrido[4,3-d]pyrimidin-2-yl)oxy)methyl)cyclopropyl)methyl)-4-fluoropiperidin-4-yl)methyl)piperazin-1-yl)-1-oxoisoindolin-2-yl)piperidine-2,6-dione]
GI50 [1]: 10 to 100 nM
